The record followed here is PubChem BioAssay AID328 (DTP/NCI, 2004).

The assay has as its system BDF1 mice, P388 leukemia ip, median survival T/C. Nature of the assay: NCI In Vivo Anticancer Drug Screen. Data for tumor model P388 Leukemia (intraperitoneal) in B6D2F1 (BDF1) mice. The settings on record: endpoint: median survival time, higher = longer survival. An outline of the steps:
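T/C = treated-group survival ÷ vehicle-control survival; tumour transplanted into mice before dosing.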

The mark [1] stands for this setting: dose: 50.0 mg/kg/injection, schedule: Q01DX009 (ip), vehicle: saline with Tween-80.
Where [2] appears, read: dose: 100.0 mg/kg/injection, schedule: Q01DX009 (ip), vehicle: Klucel (hydroxypropylcellulose) (HPC).
Setting [3] is: dose: 100.0 mg/kg/injection, schedule: Q04DX003 (ip), vehicle: other.
Setting [4] is: dose: 200.0 mg/kg/injection, schedule: Q01DX009 (ip), vehicle: Klucel (hydroxypropylcellulose) (HPC).
Setting [5] is: dose: 200.0 mg/kg/injection, schedule: Q04DX003 (ip), vehicle: other.
[6] abbreviates: dose: 400.0 mg/kg/injection, schedule: Q01DX009 (ip), vehicle: Klucel (hydroxypropylcellulose) (HPC).
[7] abbreviates: dose: 400.0 mg/kg/injection, schedule: Q04DX003 (ip), vehicle: other.
Setting [8] is: dose: 100.0 mg/kg/injection, schedule: Q01DX001 (ip), vehicle: saline with Tween-80.
The mark [9] stands for this setting: dose: 200.0 mg/kg/injection, schedule: Q01DX001 (ip), vehicle: saline with Tween-80.
Setting [10] is: dose: 400.0 mg/kg/injection, schedule: Q01DX001 (ip), vehicle: saline with Tween-80.
Setting [11] is: dose: 200.0 mg/kg/injection, schedule: Q04DX003 (ip), vehicle: saline.
[12] abbreviates: dose: 100.0 mg/kg/injection, schedule: Q04DX003 (ip), vehicle: saline with Tween-80.

Where “and” joins values, the source holds several entries; their conditions need not be identical. Equal entries are not always repeated. Inconclusive results and toxic doses are left out.

Turning to `COc1ccc(/C=C2\CCC3C(CCCC34OCCO4)C2=O)cc1` (stereo not given), the T/C was 104 % of control (dose: 45.0 mg/kg/injection, schedule: Q01DX009 (ip), vehicle: Klucel (hydroxypropylcellulose) (HPC)); 100 % of control under setting [1]; 95 % of control (dose: 65.0 mg/kg/injection, schedule: Q01DX009 (ip), vehicle: Klucel (hydroxypropylcellulose) (HPC)); 118 % of control under setting [2]; 104 % of control (dose: 100.0 mg/kg/injection, schedule: Q01DX009 (ip), vehicle: saline with Tween-80); 91 % of control under setting [3]. The T/C is 90 % of control (dose: 150.0 mg/kg/injection, schedule: Q01DX009 (ip), vehicle: Klucel (hydroxypropylcellulose) (HPC)); 100 % of control under setting [4]; 96 % of control (dose: 200.0 mg/kg/injection, schedule: Q01DX009 (ip), vehicle: saline with Tween-80); 108 % of control under setting [5]; 95 % of control under setting [6]; 95 % of control under setting [7].
Consider `FC(F)(F)c1ccc2c(c1)N(CCCN1CCN(CCOCCCl)CC1)c1ccccc1S2`, for which, under “dose: 12.5 mg/kg/injection, schedule: Q04DX003 (ip), vehicle: saline”, the T/C was 107 % of control.
On to `Cc1cc(NC(=O)c2ccc(Cl)cc2)ccc1Cl`, for which the T/C by setting is: under setting [8], 100 % of control; under setting [9], 86 % of control; under setting [10], 95 % of control.
Take `CCCC(C(O)c1ccc(OC)cc1)C(O)(C(F)(F)F)C(F)(F)F` (stereo not given): the T/C reads like this: under setting [3], 90 % of control; under setting [5], 105 % of control; under setting [7], 105 % of control.
For the compound `Nc1ccc2cc3ccc(N)cc3nc2c1`, the T/C (dose: 25.0 mg/kg/injection, schedule: Q01DX009 (ip), vehicle: saline) is 86 % of control.
As for `CC1=NN(c2ccccc2)C(=O)/C1=C\c1ccc(N(CCC#N)CCC#N)cc1`, the T/C (dose: 50.0 mg/kg/injection, schedule: Q01DX009 (ip), vehicle: Klucel (hydroxypropylcellulose) (HPC)) was 87 % of control; the T/C under setting [2] was 93 % of control; the T/C under setting [4] is 87 % of control; the T/C under setting [6] is 91 % of control.
`Clc1cc(CBr)c(CBr)cc1Cl`: the T/C (dose: 12.5 mg/kg/injection, schedule: Q01DX009 (ip), vehicle: saline with Tween-80) is 100 % of control.
`C[n+]1c2cc(N)ccc2cc2ccc(N)cc21`: the T/C by setting is: (dose: 8.0 mg/kg/injection, schedule: Q01DX009 (ip), vehicle: saline) 152 % of control; (dose: 12.0 mg/kg/injection, schedule: Q01DX009 (ip), vehicle: saline) 167 % of control.
On to `CCOC(=O)Nc1nc(Cl)c(Cl)nc1Cl`, for which the T/C (dose: 0.78 mg/kg/injection, schedule: Q01DX009 (ip), vehicle: water) is 105 % of control; the T/C (dose: 1.56 mg/kg/injection, schedule: Q01DX009 (ip), vehicle: water) was 114 % of control; the T/C (dose: 3.12 mg/kg/injection, schedule: Q01DX009 (ip), vehicle: water) was 96 % of control; the T/C (dose: 6.25 mg/kg/injection, schedule: Q01DX009 (ip), vehicle: water) is 100 % of control and 110 % of control; the T/C (dose: 6.25 mg/kg/injection, schedule: Q04DX003 (ip), vehicle: water) is 90 % of control; the T/C (dose: 12.5 mg/kg/injection, schedule: Q01DX009 (ip), vehicle: water) was 91 % of control and 95 % of control. In addition, the T/C (dose: 12.5 mg/kg/injection, schedule: Q04DX003 (ip), vehicle: water) was 266 % of control and 102 % of control; the T/C (dose: 25.0 mg/kg/injection, schedule: Q01DX009 (ip), vehicle: water) is 100 % of control; the T/C (dose: 25.0 mg/kg/injection, schedule: Q04DX003 (ip), vehicle: water) is 269 % of control; the T/C (dose: 50.0 mg/kg/injection, schedule: Q01DX009 (ip), vehicle: water) was 87 % of control and 89 % of control; the T/C (dose: 50.0 mg/kg/injection, schedule: Q04DX003 (ip), vehicle: water) was 266 % of control and 116 % of control; the T/C (dose: 100.0 mg/kg/injection, schedule: Q01DX009 (ip), vehicle: water) is 89 % of control and 95 % of control. The T/C is, setting by setting: (dose: 200.0 mg/kg/injection, schedule: Q01DX009 (ip), vehicle: water) 105 % of control and 108 % of control; (dose: 400.0 mg/kg/injection, schedule: Q01DX009 (ip), vehicle: water) 118 % of control.
In the case of `NC(=O)NN=C1COC(c2ccccc2)OC1` (stereo not given), the T/C by setting is: (dose: 50.0 mg/kg/injection, schedule: Q01DX009 (ip), vehicle: saline) 110 % of control; (dose: 100.0 mg/kg/injection, schedule: Q01DX009 (ip), vehicle: saline) 110 % of control; (dose: 100.0 mg/kg/injection, schedule: Q04DX003 (ip), vehicle: saline) 116 % of control; (dose: 200.0 mg/kg/injection, schedule: Q01DX009 (ip), vehicle: saline) 91 % of control; under setting [11], 104 % of control.
With `O=C(CC(O)(C(F)(F)F)C(F)(F)F)c1cccc(Cl)c1`, the T/C is 113 % of control under setting [8], 113 % of control under setting [9] and 118 % of control under setting [10].
On to `O=C(Nc1[nH]nc2nccnc12)C(F)(F)F`, for which the T/C under setting [12] is 109 % of control; the T/C (dose: 200.0 mg/kg/injection, schedule: Q04DX003 (ip), vehicle: saline with Tween-80) is 104 % of control; the T/C (dose: 400.0 mg/kg/injection, schedule: Q04DX003 (ip), vehicle: saline with Tween-80) is 118 % of control.
Regarding `NC(=O)SCC(=O)Nc1ccc2ncccc2c1`, the T/C reads like this: (dose: 88.0 mg/kg/injection, schedule: Q01DX009 (ip), vehicle: saline) 122 % of control; (dose: 100.0 mg/kg/injection, schedule: Q04DX003 (ip), vehicle: saline sonified) 104 % of control; (dose: 132.0 mg/kg/injection, schedule: Q01DX009 (ip), vehicle: saline) 118 % of control; (dose: 200.0 mg/kg/injection, schedule: Q04DX003 (ip), vehicle: saline sonified) 100 % of control; (dose: 400.0 mg/kg/injection, schedule: Q04DX003 (ip), vehicle: saline sonified) 100 % of control.
For the compound `Cc1cc(NCCCCCCNc2cc(C)nc3ccc(N)cc23)c2cc(N)ccc2n1`, the T/C was 163 % of control (dose: 37.5 mg/kg/injection, schedule: Q04DX003 (ip), vehicle: saline); 159 % of control (dose: 75.0 mg/kg/injection, schedule: Q04DX003 (ip), vehicle: saline); 218 % of control (dose: 150.0 mg/kg/injection, schedule: Q04DX003 (ip), vehicle: saline); 213 % of control (dose: 198.0 mg/kg/injection, schedule: Q04DX003 (ip), vehicle: Klucel (hydroxypropylcellulose) (HPC)); 210 % of control under setting [11]; 230 % of control and 213 % of control (dose: 300.0 mg/kg/injection, schedule: Q04DX003 (ip), vehicle: saline). Moreover, the T/C was 254 % of control (dose: 400.0 mg/kg/injection, schedule: Q04DX003 (ip), vehicle: Klucel (hydroxypropylcellulose) (HPC)) and 250 % of control (dose: 400.0 mg/kg/injection, schedule: Q04DX003 (ip), vehicle: saline).
With `CCCCNC(C)(C)C(SSC(c1cccs1)C(C)(C)NCCCC)c1cccs1` (stereo not given), the T/C is 100 % of control (dose: 25.0 mg/kg/injection, schedule: Q01DX009 (ip), vehicle: saline with Tween-80); 109 % of control (dose: 25.0 mg/kg/injection, schedule: Q04DX003 (ip), vehicle: saline with Tween-80); 100 % of control under setting [1]; 118 % of control (dose: 50.0 mg/kg/injection, schedule: Q04DX003 (ip), vehicle: saline with Tween-80); 118 % of control under setting [12].
